US11957687B2 (REGENERON PHARMACEUTICALS, INC., priority 2019, dated 2024)

target: HSD17B13 (Homo sapiens (Human), UniProt Q7Z5P4); test: HSD17B13 enzymatic inhibition assay (150 nM or 50 nM HSD17B13); format: biochemical; settings: 50 nM HSD17B13; read-out: Inhibition of 50 nM of HSD17B13 IC50
Sequence (Q7Z5P4 other isoform, or with tags, fused parts or gaps): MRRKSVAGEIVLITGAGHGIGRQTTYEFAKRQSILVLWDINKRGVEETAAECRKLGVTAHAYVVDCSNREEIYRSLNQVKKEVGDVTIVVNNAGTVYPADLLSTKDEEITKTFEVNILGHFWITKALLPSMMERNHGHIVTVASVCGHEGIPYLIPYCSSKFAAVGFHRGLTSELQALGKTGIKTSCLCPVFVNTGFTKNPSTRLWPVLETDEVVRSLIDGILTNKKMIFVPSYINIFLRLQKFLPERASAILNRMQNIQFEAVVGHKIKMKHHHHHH

Question: `O=C(NC(c1ccccc1)c1ccc(-c2ncccn2)cc1)c1ccc(C(F)(F)F)[nH]c1=O` (stereo not drawn) [Compound 97, 2-oxo-N-(phenyl(4-(pyrimidin-2-yl)phenyl)methyl)-6-(trifluoromethyl)-1,2-dihydropyridine-3-carboxamide] was tested. Which IC50 did it give?
Answer: The IC50 was 2300 nM.

Question: `NCc1ccc(C(NC(=O)c2ccc(C(F)(F)F)[nH]c2=O)c2ccccc2)cc1` (stereo not drawn) [Compound 98, N-((4-(aminomethyl)phenyl)(phenyl)methyl)-2-oxo-6-(trifluoromethyl)-1,2-dihydropyridine-3-carboxamide] was tested. Which IC50 did it give?
Answer: The IC50 was greater than 10000 nM.

Question: How did the IC50 turn out when `O=C(NC(c1ccccc1)c1ccc(C2COC2)cc1)c1ccc(C(F)(F)F)[nH]c1=O` (stereo not drawn) [Compound 99, N-((4-(oxetan-3-yl)phenyl)(phenyl)methyl)-2-oxo-6-(trifluoromethyl)-1,2-dihydropyridine-3-carboxamide] was run?
Answer: The IC50 was 2720 nM.

Question: Which IC50 does the source give for `O=C(NC(c1ccccc1)c1ccc(-c2ccccn2)cc1)c1ccc(C(F)(F)F)[nH]c1=O` (stereo not drawn) [Compound 100, 2-oxo-N-(phenyl(4-(pyridin-2-yl)phenyl)methyl)-6-(trifluoromethyl)-1,2-dihydropyridine-3-carboxamide] here?
Answer: The IC50 was 740 nM.

Question: Which IC50 does the source give for `O=C(NC(c1ccccc1)c1ccc(-c2cnccn2)cc1)c1ccc(C(F)(F)F)[nH]c1=O` (stereo not drawn) [Compound 101, 2-oxo-N-(phenyl(4-(pyrazin-2-yl)phenyl)methyl)-6-(trifluoromethyl)-1,2-dihydropyridine-3-carboxamide] here?
Answer: The IC50 was 1230 nM.

Question: With `CNCc1ccc(C(NC(=O)c2ccc(C(F)(F)F)[nH]c2=O)c2ccccc2)cc1` (stereo not drawn) [Compound 102, N-((4-((methylamino)methyl)phenyl) (phenyl)methyl)-2-oxo-6-(trifluoromethyl)-1,2-dihydropyridine-3-carboxamide] as the molecule, how does the IC50 read?
Answer: Its IC50 is greater than 10000 nM.

Question: For `CN(C)Cc1ccc(C(NC(=O)c2ccc(C(F)(F)F)[nH]c2=O)c2ccccc2)cc1` (stereo not drawn) [Compound 103, N-((4-((dimethylamino)methyl)phenyl)(phenyl)methyl)-2-oxo-6-(trifluoromethyl)-1,2-dihydropyridine-3-carboxamide], which IC50 is on record?
Answer: The IC50 was greater than 10000 nM.

Question: Which IC50 does the source give for `O=C(NC(c1ccccc1)c1ccc(C2CCNCC2)cc1)c1ccc(C(F)(F)F)[nH]c1=O` (stereo not drawn) [Compound 104, 2-oxo-N-(phenyl(4-(piperidin-4-yl)phenyl)methyl)-6-(trifluoromethyl)-1,2-dihydropyridine-3-carboxamide] here?
Answer: The IC50 was 8650 nM.

Question: Which IC50 does the source give for `O=C(NC(c1ccccc1)c1ccc(C2=CCNCC2)cc1)c1ccc(C(F)(F)F)[nH]c1=O` (stereo not drawn) [Compound 105, 2-oxo-N-(phenyl(4-(1,2,3,6-tetrahydropyridin-4-yl)phenyl)methyl)-6-(trifluoromethyl)-1,2-dihydropyridine-3-carboxamide] here?
Answer: Its IC50 is 4280 nM.

Question: Which IC50 does the source give for `CN1CCC(c2ccc(C(NC(=O)c3ccc(C(F)(F)F)[nH]c3=O)c3ccccc3)cc2)CC1` (stereo not drawn) [Compound 106, N-((4-(1-methylpiperidin-4-yl)phenyl)(phenyl)methyl)-2-oxo-6-(trifluoromethyl)-1,2-dihydropyridine-3-carboxamide] here?
Answer: Its IC50 is greater than 10000 nM.

Question: With `O=C(NC(c1ccccc1)c1ccc2c(c1)CCCN2)c1ccc(C(F)(F)F)[nH]c1=O` (stereo not drawn) [Compound 107, 2-oxo-N-(phenyl(1,2,3,4-tetrahydroquinolin-6-yl)methyl)-6-(trifluoromethyl)-1,2-dihydropyridine-3-carboxamide] as the molecule, how does the IC50 read?
Answer: Its IC50 is 960 nM.

Question: Which IC50 does the source give for `O=C(NC(c1ccccc1)c1ccc2c(c1)CNCC2)c1ccc(C(F)(F)F)[nH]c1=O` (stereo not drawn) [Compound 108, 2-oxo-N-(phenyl(1,2,3,4-tetrahydroisoquinolin-7-yl)methyl)-6-(trifluoromethyl)-1,2-dihydropyridine-3-carboxamide] here?
Answer: The IC50 was greater than 10000 nM.

Question: For `O=C(NC(c1ccccc1)c1ccc(CO)cc1)c1ccc(C(F)(F)F)[nH]c1=O` (stereo not drawn) [Compound 109, N-((4-(hydroxymethyl)phenyl) (phenyl)methyl)-2-oxo-6-(trifluoromethyl)-1,2-dihydropyridine-3-carboxamide], which IC50 is on record?
Answer: Its IC50 is 820 nM.

Question: With `O=C(NC(c1ccccc1)c1ccc2c(c1)NCCC2)c1ccc(C(F)(F)F)[nH]c1=O` (stereo not drawn) [Compound 110, 2-oxo-N-(phenyl(1,2,3,4-tetrahydroquinolin-7-yl)methyl)-6-(trifluoromethyl)-1,2-dihydropyridine-3-carboxamide] as the molecule, how does the IC50 read?
Answer: The IC50 was 840 nM.

Question: How did the IC50 turn out when `O=C(NC(c1ccccc1)c1ccc2c(c1)CCNC2)c1ccc(C(F)(F)F)[nH]c1=O` (stereo not drawn) [Compound 112, 2-oxo-N-(phenyl(1,2,3,4-tetrahydroisoquinolin-6-yl)methyl)-6-(trifluoromethyl)-1,2-dihydropyridine-3-carboxamide] was run?
Answer: The IC50 was greater than 10000 nM.

Question: How did the IC50 turn out when `O=C(NC(c1ccccc1)c1ccc2c(c1)CNC2)c1ccc(C(F)(F)F)[nH]c1=O` (stereo not drawn) [Compound 113, N-(isoindolin-5-yl(phenyl)methyl)-2-oxo-6-(trifluoromethyl)-1,2-dihydropyridine-3-carboxamide] was run?
Answer: Its IC50 is greater than 10000 nM.

Question: With `O=C(NC(c1ccccc1)c1ccc(C2CCN(CC(F)(F)F)CC2)cc1)c1ccc(C(F)(F)F)[nH]c1=O` (stereo not drawn) [Compound 114, 2-oxo-N-(phenyl(4-(1-(2,2,2-trifluoroethyl)piperidin-4-yl)phenyl)methyl)-6-(trifluoromethyl)-1,2-dihydropyridine-3-carboxamide] as the molecule, how does the IC50 read?
Answer: Its IC50 is 280 nM.

Question: With `Cc1ccc(C(NC(=O)c2cc(C(F)(F)F)c[nH]c2=O)c2ccc(C)cc2)cc1` [Compound 116, N-(di-p-tolylmethyl)-2-oxo-5-(trifluoromethyl)-1,2-dihydropyridine-3-carboxamide] as the molecule, how does the IC50 read?
Answer: Its IC50 is greater than 10000 nM.

Question: For `Cc1ccc(C(NC(=O)c2cc(C)c(C(F)F)[nH]c2=O)c2ccc(C)cc2)cc1` [Compound 117, N-(di-p-tolylmethyl)-6-(difluoromethyl)-5-methyl-2-oxo-1,2-dihydropyridine-3-carboxamide], which IC50 is on record?
Answer: The IC50 was greater than 10000 nM.

Question: How did the IC50 turn out when `C=Cc1cc(C(=O)NC(c2ccc(C)cc2)c2ccc(C)cc2)c(=O)[nH]c1C(F)(F)F` [Compound 118, N-(di-p-tolylmethyl)-2-oxo-6-(trifluoromethyl)-5-vinyl-1,2-dihydropyridine-3-carboxamide] was run?
Answer: The IC50 was 300 nM.

Question: With `CCc1cc(C(=O)NC(c2ccc(C)cc2)c2ccc(C)cc2)c(=O)[nH]c1C(F)(F)F` [Compound 119, N-(di-p-tolylmethyl)-5-ethyl-2-oxo-6-(trifluoromethyl)-1,2-dihydropyridine-3-carboxamide] as the molecule, how does the IC50 read?
Answer: Its IC50 is 250 nM.

Question: `Cc1ccc(C(NC(=O)c2cc(CCO)c(C(F)(F)F)[nH]c2=O)c2ccc(C)cc2)cc1` [Compound 120, N-(di-p-tolylmethyl)-5-(2-hydroxyethyl)-2-oxo-6-(trifluoromethyl)-1,2-dihydropyridine-3-carboxamide] was tested. Which IC50 did it give?
Answer: Its IC50 is 870 nM.

Question: How did the IC50 turn out when `C=CCc1cc(C(=O)NC(c2ccc(C)cc2)c2ccc(C)cc2)c(=O)[nH]c1C(F)(F)F` [Compound 121, 5-allyl-N-(di-p-tolylmethyl)-2-oxo-6-(trifluoromethyl)-1,2-dihydropyridine-3-carboxamide] was run?
Answer: The IC50 was 220 nM.

Question: For `Cc1ccc(C(NC(=O)c2c(C(F)(F)F)cc[nH]c2=O)c2ccc(C)cc2)cc1` [Compound 122, N-(di-p-tolylmethyl)-2-oxo-4-(trifluoromethyl)-1,2-dihydropyridine-3-carboxamide], which IC50 is on record?
Answer: Its IC50 is greater than 10000 nM.

Question: With `Cc1cc(C(F)(F)F)[nH]c(=O)c1C(=O)NC(c1ccccc1)c1ccccc1` [Compound 123, N-benzhydryl-4-methyl-2-oxo-6-(trifluoromethyl)-1,2-dihydropyridine-3-carboxamide] as the molecule, how does the IC50 read?
Answer: Its IC50 is 5790 nM.

Question: How did the IC50 turn out when `Cc1cc(C(F)(F)F)[nH]c(=O)c1C(=O)NC(c1ccccc1)c1ccc(Cl)cc1` (stereo not drawn) [Compound 124, N-((4-chlorophenyl)(phenyl)methyl)-4-methyl-2-oxo-6-(trifluoromethyl)-1,2-dihydropyridine-3-carboxamide] was run?
Answer: The IC50 was 1400 nM.

Question: How did the IC50 turn out when `Cc1cc(C(F)(F)F)[nH]c(=O)c1C(=O)NC(c1ccccc1)c1ccc(CC(F)(F)F)cc1` (stereo not drawn) [Compound 125, 4-methyl-2-oxo-N-(phenyl(4-(2,2,2-trifluoroethyl)phenyl)methyl)-6-(trifluoromethyl)-1,2-dihydropyridine-3-carboxamide] was run?
Answer: The IC50 was 960 nM.

Question: How did the IC50 turn out when `Cc1ccc(C(NC(=O)c2c(C)cc(C(F)(F)F)[nH]c2=O)c2ccccc2)cc1` (stereo not drawn) [Compound 126, 4-methyl-2-oxo-N-(phenyl(p-tolyl)methyl)-6-(trifluoromethyl)-1,2-dihydropyridine-3-carboxamide] was run?
Answer: Its IC50 is 1750 nM.

Question: For `O=C(NC1CCSc2ccccc21)c1ccc(C(F)(F)F)[nH]c1=O` (stereo not drawn) [Compound 127, 2-oxo-N-(thiochroman-4-yl)-6-(trifluoromethyl)-1,2-dihydropyridine-3-carboxamide], which IC50 is on record?
Answer: Its IC50 is 3750 nM.

Question: Which IC50 does the source give for `O=C(NC1CCOc2ccccc21)c1ccc(C(F)(F)F)[nH]c1=O` (stereo not drawn) [Compound 128, N-(chroman-4-yl)-2-oxo-6-(trifluoromethyl)-1,2-dihydropyridine-3-carboxamide] here?
Answer: Its IC50 is 5690 nM.

Question: `CC1CC(NC(=O)c2ccc(C(F)(F)F)[nH]c2=O)c2ccccc2O1` (stereo not drawn) [Compound 129, N-(2-methylchroman-4-yl)-2-oxo-6-(trifluoromethyl)-1,2-dihydropyridine-3-carboxamide] was tested. Which IC50 did it give?
Answer: The IC50 was 4330 nM.

Question: For `O=C(NC1CCNc2ccccc21)c1ccc(C(F)(F)F)[nH]c1=O` (stereo not drawn) [Compound 130, 2-oxo-N-(1,2,3,4-tetrahydroquinolin-4-yl)-6-(trifluoromethyl)-1,2-dihydropyridine-3-carboxamide], which IC50 is on record?
Answer: Its IC50 is greater than 10000 nM.

Question: With `O=C(NC1CCc2cc(Cl)ccc21)c1ccc(C(F)(F)F)[nH]c1=O` (stereo not drawn) [Compound 131, N-(5-chloro-2,3-dihydro-1H-inden-1-yl)-2-oxo-6-(trifluoromethyl)-1,2-dihydropyridine-3-carboxamide] as the molecule, how does the IC50 read?
Answer: Its IC50 is 1820 nM.

Question: Which IC50 does the source give for `O=C(NC1CCCc2ccccc21)c1ccc(C(F)(F)F)[nH]c1=O` (stereo not drawn) [Compound 132, 2-oxo-N-(1,2,3,4-tetrahydronaphthalen-1-yl)-6-(trifluoromethyl)-1,2-dihydropyridine-3-carboxamide] here?
Answer: Its IC50 is 1450 nM.

Question: `Cc1ccc2c(c1)CCC2NC(=O)c1ccc(C(F)(F)F)[nH]c1=O` (stereo not drawn) [Compound 133, N-(5-methyl-2,3-dihydro-1H-inden-1-yl)-2-oxo-6-(trifluoromethyl)-1,2-dihydropyridine-3-carboxamide] was tested. Which IC50 did it give?
Answer: The IC50 was 1450 nM.

Question: With `O=C(NC1CCc2cc(O)ccc21)c1ccc(C(F)(F)F)[nH]c1=O` (stereo not drawn) [Compound 135, N-(5-hydroxy-2,3-dihydro-1H-inden-1-yl)-2-oxo-6-(trifluoromethyl)-1,2-dihydropyridine-3-carboxamide] as the molecule, how does the IC50 read?
Answer: Its IC50 is 1910 nM.
